Activity calls are given as the source filed them. No rule for the calls is given here.
Test system: HEK-293T cytotoxicity, luminescence
Test: HEK-293T cell viability reduction – luminescence, B-cell screen hits, cytotoxicity control for BCR NF-kB inhibitor project, dose response (AID 489021)

Structure (SMILES): COc1ccc(/C=C\C(=O)O[C@@H]2C(O)C(O[C@@H]3OC(C)[C@H](O[C@@H]4OCC(O[C@H]5O[C@H](CO)[C@@H](O)C(O)C5O)C(O)C4O)C(O)C3O)[C@H](OC(=O)[C@]34CCC(C)(C)C[C@@H]3C3=CCC5[C@@]6(C)CC(O)C(O[C@@H]7OC(CO)C(O)[C@H](O)[C@H]7O)[C@@](C)(C(=O)O)C6CC[C@@]5(C)[C@]3(CO)CC4)O[C@H]2C)cc1 (stereo partly specified)
- IC50: 60.7 µM (inactive)
